Assay results published in patent publication US4407806A, “Fungicidal, herbicidal and plant growth regulating pyridyl-containing ethers” (Chevron Research Company, priority 1981, dated 1983).

Assays:
Format in all cases: in vivo
[1] = tested on: celery late blight organism Septoria apii; assay: whole plant or invertebrate; details: 336 h, read-out: Fungicidal Activity Control %, Celery L.B.
Cotton plants = assay: Cotton Regrowth; details: Gossypium hirsutum, 13 to 18 days, 100% is total inhibition, read-out: Regrowth (percent inhibition of cotton regrowth)
Description: Compounds of this invention were tested to determine their plant-growth regulating effects on cotton leaf regrowth.
Cotton plants, 4 to 5 weeks old, containing 4 true leaves above the cotyledonary leaves are employed. Growth beyond the second true leaf was removed. Within 24 hours the plants are sprayed with a 2000 ppm solution of the test compound. After spraying, the plants are transferred to a greenhouse maintained at 85° F. (±5° F.) and incubated there for from 13 to 18 days. The plants during this period are sub-irrigated in 1/4" of water.
After this period, regrowth is determined as a percent inhibition of auxiliary bud regrowth--100% is total inhibition while 0% is no inhibition.

[2] = tested on: Watergrass (Echinochloa crusgalli); assay: Post-emergent herbicidal test; details: Echinochloa crus-galli, 504 h, post-emergence, 33 micrograms/cm^2, 3 weeks, 0-to-100 scale, read-out: Herbicidal Activity Post-Emergence % Control, Water Grass
Wild Oats (Avena fatura) [3] = assay: Post-emergent herbicidal test; details: 504 h, post-emergence, 33 micrograms/cm^2, 3 weeks, 0-to-100 scale
Soybean [4] = assay: Post-emergent herbicidal test; details: Glycine max, 504 h, post-emergence, 33 micrograms/cm^2, 3 weeks, 0-to-100 scale, read-out: Herbicidal Activity Post-Emergence % Control, Soybean
[5] = tested on: Pigweed (Amaranthus retraflexus); assay: Post-emergent herbicidal test; details: 504 h, post-emergence, 33 micrograms/cm^2, 3 weeks, 0-to-100 scale
[6] = tested on: Crabgrass (Digitaria sanguinalis); assay: Post-emergent herbicidal test; details: 504 h, post-emergence, 33 micrograms/cm^2, 3 weeks, 0-to-100 scale, read-out: Herbicidal Activity Post-Emergence % Control, Crab Grass
[7] = tested on: Mustard (Brassica arvensis); assay: Post-emergent herbicidal test; details: 504 h, post-emergence, 33 micrograms/cm^2, 3 weeks, 0-to-100 scale
[8] = tested on: Lambsquarter (Chenopodium album); assay: Post-emergent herbicidal test; details: 504 h, post-emergence, 33 micrograms/cm^2, 3 weeks, 0-to-100 scale, read-out: Herbicidal Activity Post-Emergence % Control, L'Qtr.
[9] = tested on: Bean Powdery Mildew organism Erisiphe polygoni; assay: Bean Powdery Mildew control; details: 240 h, 10 days, vs untreated check, read-out: Fungicidal Activity Control %, Bean P.M.
Description: The compounds of the invention were tested for the control of the Bean Powdery Mildew organism […] polygoni. Seedling bean plants were sprayed with a 250 ppm solution of the test compound in acetone, water and a nonionic emulsifier. The sprayed plants were then inoculated 1 day later with organism. […] The percent disease control provided by a given test compound was based on the percent disease reduction relative to the untreated check plants.

[10] = tested on: Tomato Late Blight organism Phytophthora infestans; assay: whole plant or invertebrate; details: 168 h, read-out: Fungicidal Activity Control %, Tomato L.B.
Idaho pinto bean plants = assay: Axillary Bud Growth Inhibition Of Pinto Bean Plants; details: 288 h; 625-ppm; twelve days after treatment; vs untreated check; read-out: Bud Inhib (percent inhibition of axillary bud growth)
Description: Compounds of this invention were tested to determine their plant-growth-retarding effects on axillary bud growth of pinto beans.
Idaho pinto bean plants (13-16 days old) having monofoliate leaves fully developed and first trifoliates beginning to unfold were used. All growth 5 mm above the monofoliate leaf node was removed with forceps 1 to 4 hours prior to treatment with the test compounds. Four plants were used for each test compound.
A 625-ppm solution of the test compound in a 2% aqueous acetone solution containing a small amount of a nonionic surfactant was sprayed onto the pinto bean plants until runoff. After drying, the treated plants were transferred to a greenhouse maintained at 20°-23° C. and watered at regular intervals. Twelve days after treatment, the bud growth at the axil of the monofoliate leaf was determined and expressed as percent inhibition of axillary bud growth as compared to untreated check plants.

[11] = tested on: tomato Early Blight organism, Alternaria solani conidia; assay: Tomato Early Blight control; details: 288 h, about 12 days in greenhouse, vs untreated check, read-out: Fungicidal Activity Control %, Tomato E.B.
Description: Compounds of the invention were tested for the control of the tomato Early Blight organism, Alternaria solani conidia. Tomato (variety Bonny Best) seedlings of 6 to 7 weeks old were used. The tomato plants were sprayed with a 250 ppm solution of the test compound in an acetone-and-water solution containing a small amount of a nonionic emulsifier. The sprayed plants were inoculated one day later with the organism, placed in the environmental chamber and incubated at […] and 100% relative humidity for 24 hours. Following the incubation, the plants were maintained in a greenhouse for about 12 days. Percent diseases control was based on the percent disease development on untreated check plants.

[12] = tested on: grape downy mildew organism Plasmopara viticola; assay: Grape Downy Mildew control (detached grape leaves); details: vs untreated check, read-out: Fungicidal Activity Control %, Grape D.M.
[13] = tested on: Watergrass (Echinochloa crusgalli); assay: Pre-emergent herbicidal test; details: Echinochloa crus-galli, 504 h; pre-emergence; 33 micrograms/cm^2; 3 weeks; 0-to-100 scale; read-out: Herbicidal Activity Pre-Emergence % Control, Water Grass
Description: (§1) An acetone solution of the test compound was prepared by mixing 750 mg of the compound, 220 mg of a nonionic surfactant and 25 ml of acetone. This solution was added to approximately 125 ml of water containing 156 mg of surfactant.
(§2) Seeds of the test vegetation were planted in a pot of […] and the test solution was sprayed uniformly onto the soil surface at a dose of 33 micrograms/cm^2. The pot was watered and placed in a greenhouse. […] At the end of this period, the herbicidal effectiveness of the compound was rated based on the physiological observations. A 0-to-100 scale was used, 0 representing no phytotoxicity, 100 representing complete kill.

Wild Oats (Avena fatura) [14] = assay: Pre-emergent herbicidal test; details: 504 h, pre-emergence, 33 micrograms/cm^2, 3 weeks, 0-to-100 scale
Description: as §1, §2

Soybean [15] = assay: Pre-emergent herbicidal test; details: Glycine max, 504 h; pre-emergence; 33 micrograms/cm^2; 3 weeks; 0-to-100 scale; read-out: Herbicidal Activity Pre-Emergence % Control, Soybean
Description: as §1, §2

[16] = tested on: Pigweed (Amaranthus retraflexus); assay: Pre-emergent herbicidal test; details: 504 h, pre-emergence, 33 micrograms/cm^2, 3 weeks, 0-to-100 scale
Description: as §1, §2

[17] = tested on: Crabgrass (Digitaria sanguinalis); assay: Pre-emergent herbicidal test; details: 504 h, pre-emergence, 33 micrograms/cm^2, 3 weeks, 0-to-100 scale, read-out: Herbicidal Activity Pre-Emergence % Control, Crab Grass
Description: as §1, §2

[18] = tested on: Mustard (Brassica arvensis); assay: Pre-emergent herbicidal test; details: 504 h, pre-emergence, 33 micrograms/cm^2, 3 weeks, 0-to-100 scale
Description: as §1, §2

[19] = tested on: Lambsquarter (Chenopodium album); assay: Pre-emergent herbicidal test; details: 504 h, pre-emergence, 33 micrograms/cm^2, 3 weeks, 0-to-100 scale, read-out: Herbicidal Activity Pre-Emergence % Control, L'Qtr.
Description: as §1, §2

| Compound | pest or weed control at 250 ppm [1] [%] | inhibition at 2000 ppm (Cotton plants) [%] | pest or weed control at 5000 ppm, 33 µg/cm2 [2] [%] | pest or weed control at 5000 ppm, 33 µg/cm2 (Wild Oats (Avena fatura) [3]) [%] | plant injury at 5000 ppm, 33 µg/cm2 (Soybean [4]) [%] | pest or weed control at 5000 ppm, 33 µg/cm2 [5] [%] | pest or weed control at 5000 ppm, 33 µg/cm2 [6] [%] | pest or weed control at 5000 ppm, 33 µg/cm2 [7] [%] | pest or weed control at 5000 ppm, 33 µg/cm2 [8] [%] | pest or weed control at 250 ppm [9] [%] | pest or weed control at 250 ppm [10] [%] | pest or weed control at 625 µg/mL (Idaho pinto bean plants) [%] | pest or weed control at 250 ppm [11] [%] | pest or weed control at 250 ppm [12] [%] | pest or weed control at 33 µg/cm2 [13] [%] | pest or weed control at 33 µg/cm2 (Wild Oats (Avena fatura) [14]) [%] | plant injury at 33 µg/cm2 (Soybean [15]) [%] | pest or weed control at 33 µg/cm2 [16] [%] | pest or weed control at 33 µg/cm2 [17] [%] | pest or weed control at 33 µg/cm2 [18] [%] | further results |
| --- | --- | --- | --- | --- | --- | --- | --- | --- | --- | --- | --- | --- | --- | --- | --- | --- | --- | --- | --- | --- | --- |
| CC(C)(C)c1ccc(COC(c2cccnc2)c2ccc(Cl)cc2Cl)cc1 (stereo not drawn) [Compound 6, 3-pyridyl-2,4-dichlorophenylcarbinol 4-t-butylbenzylether] | 78 | 90 | 0 | 0 | 35 | 55 | 0 | 25 | 60 | 100 | 0 | 60 | 40 | 50 | 65 | 25 | 0 | 35 | 68 | 20 | pest or weed control at 33 µg/cm2 [19]: 15% |
| c1ccc(COC(c2ccccc2)c2cccnc2)cc1 (stereo not drawn) [Compound 7] | 43 | 90 | 0 | 0 | 35 | 45 | 0 | 60 | 65 | 100 | 0 | 20 | 0 | 0 | 80 | 0 | 0 | 32 | 99 | 0 | pest or weed control at 33 µg/cm2 [19]: 28% |
| FC(F)(F)c1cccc(COC(c2ccccc2)c2cccnc2)c1 (stereo not drawn) [Compound 8] | 38 | 65 | 0 | 0 | 25 | 50 | 0 | 50 | 40 | 100 | 0 | 60 | 25 | 0 | 0 | 0 | 0 | 0 | 0 | 0 | pest or weed control at 33 µg/cm2 [19]: 0% |
